Results on eight compounds are retold here after ChEMBL document CHEMBL1201862, “PubChem BioAssay data set” (2004).

Experiment [1] can be described thus: toxicity to human hepatoma HepG2 cells – cell-based, cherry-picked samples, cytotoxicity control, dose response (AID 1159577). It counts as functional.
A short description of experiment [2]: P. falciparum Dd2 growth inhibitors, dose response, SYBR Green, cherry-picked samples (AID 1159567). It counts as functional, cell-based.
Experiment [3] concerns the target Disintegrin and metalloproteinase domain-containing protein 17 (Homo sapiens, UniProt P78536). As to the kind of experiment: exosite inhibitors of ADAM17, dose response, biochemical (AID 743260).
Experiment [4] concerns the target T1, Polyadenylate-binding protein 1 (Homo sapiens, UniProt P11940). As to the kind of experiment: MLLE binding blockers, Cy5 peptide tracer – biochemical, fluorescence polarization, Cy5-PAM2 peptide, secondary, miRNA deadenylation inhibitor project, dose response (AID 602260). It counts as functional. The following applies: read-out: IC50_Mean. A general note: Polarisation of emitted light reports the rotation of a fluorescent probe.

The target of experiment [5] is T1, Polyadenylate-binding protein 1. Nature of the experiment: MLLE domain peptide-binding blockers, IC50 – biochemical, fluorescence polarization, FITC-PAM2 peptide, dose response (AID 602259). In kind it is functional. To be noted: read-out: IC50_Mean.
The nature of experiment [6]: HGIII-sPLA2 enzyme inhibition potency – biochemical, QFRET, IC50, dose response (AID 743457).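 Further: green fluorescence rise as the enzyme cleaves BODIPY PC-A2 in liposomes.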
The target in a further experiment is T2, Estrogen receptor (Homo sapiens, UniProt P03372).
T2 sequence (P03372 whole entry): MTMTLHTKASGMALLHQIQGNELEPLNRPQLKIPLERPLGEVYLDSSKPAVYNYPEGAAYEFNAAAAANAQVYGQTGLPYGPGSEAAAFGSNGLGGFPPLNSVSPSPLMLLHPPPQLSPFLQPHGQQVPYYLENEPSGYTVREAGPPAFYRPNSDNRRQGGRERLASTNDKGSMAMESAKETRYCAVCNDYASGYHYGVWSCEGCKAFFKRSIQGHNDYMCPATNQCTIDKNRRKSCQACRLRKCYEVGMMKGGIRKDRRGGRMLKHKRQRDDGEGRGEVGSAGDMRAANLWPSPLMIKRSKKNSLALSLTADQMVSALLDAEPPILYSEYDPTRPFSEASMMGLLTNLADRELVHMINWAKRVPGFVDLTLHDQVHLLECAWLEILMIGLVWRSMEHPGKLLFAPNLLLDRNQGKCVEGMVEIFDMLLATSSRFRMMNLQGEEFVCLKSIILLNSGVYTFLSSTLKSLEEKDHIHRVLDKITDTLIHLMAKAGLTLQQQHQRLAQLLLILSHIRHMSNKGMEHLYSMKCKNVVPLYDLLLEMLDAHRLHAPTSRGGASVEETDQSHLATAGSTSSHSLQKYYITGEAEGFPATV

A further experiment concerns the target Estrogen receptor beta (Homo sapiens, UniProt Q92731).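 Further: recombinant ER-beta bound to coactivator SRC1 peptide in presence of estradiol agonist; inhibitors block coactivator peptide binding and lower the FRET signal.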
For experiment [7], the target named is T3, Oxysterols receptor LXR-beta (Homo sapiens, UniProt P55055).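 Further: agonist activity at LXR measured by a cell-based luminescence readout across a dose range, run as a counterscreen for daf-12 agonists; HEK293 cells with Gal4-LXR fusion and GAL4-driven luciferase reporter; potency for activation of Gal4-LXR reporter so compounds are agonists.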
T3 sequence (P55055 whole entry): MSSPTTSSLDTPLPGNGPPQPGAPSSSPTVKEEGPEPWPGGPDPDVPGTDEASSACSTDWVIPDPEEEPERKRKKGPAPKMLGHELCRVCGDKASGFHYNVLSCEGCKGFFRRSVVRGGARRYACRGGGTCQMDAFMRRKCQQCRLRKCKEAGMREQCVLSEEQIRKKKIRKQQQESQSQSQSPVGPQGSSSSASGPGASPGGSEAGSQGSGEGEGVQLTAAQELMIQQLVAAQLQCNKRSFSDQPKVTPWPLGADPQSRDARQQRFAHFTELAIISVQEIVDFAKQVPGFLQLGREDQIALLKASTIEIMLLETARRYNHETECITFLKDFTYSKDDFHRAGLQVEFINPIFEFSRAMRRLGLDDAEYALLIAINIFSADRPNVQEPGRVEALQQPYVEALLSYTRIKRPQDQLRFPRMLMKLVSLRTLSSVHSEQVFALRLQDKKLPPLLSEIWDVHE
It counts as functional, cell-based.

Experiment [8] can be described thus: general cell-killing toxicity readout – plate reader, dry powder samples, cytotoxicity control for PAX8 inhibitor project, dose response (AID 743021). In kind it is functional, cell-based.
Experiment [9] is described as follows: IGROV1 cell killing – plate reader, dry powder samples, PAX8 inhibitor project, dose response (AID 743043). In kind it is functional, cell-based. The following applies: IGROV-1.
The next experiment addresses Paired box protein Pax-8 (Homo sapiens, UniProt Q06710). As to the kind of experiment: PAX8 transcriptional activity inhibition in RMG-I – RMG-I cells, luciferase, cherry-pick, dose response (AID 687027).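 Further: luciferase reporter driven by Pax8 target thyroperoxidase promoter measured by SteadyGlo luminescence.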 It counts as functional, cell-based.
A short description of experiment [10]: OVCAR8 cell viability loss – plate reader, dry powder samples, PAX8 project, dose response (AID 743197). It counts as functional, cell-based. To be noted: OVCAR-8.
A short description of experiment [11]: OVCAR-3 cell viability loss – plate reader, dry powder samples, PAX8 inhibitor project, dose response (AID 743044). It counts as functional, cell-based.
Experiment [12] is described as follows: viability loss in HepG2 liver cells – cell-based, ATP luminescence, cherry-pick, set 6, cytotoxicity control, dose response (AID 1053125). It counts as functional.

Active and inactive are the calls of the source. A value given as a limit tells only on which side of the number the result lay.

T1 sequence (P11940 whole entry): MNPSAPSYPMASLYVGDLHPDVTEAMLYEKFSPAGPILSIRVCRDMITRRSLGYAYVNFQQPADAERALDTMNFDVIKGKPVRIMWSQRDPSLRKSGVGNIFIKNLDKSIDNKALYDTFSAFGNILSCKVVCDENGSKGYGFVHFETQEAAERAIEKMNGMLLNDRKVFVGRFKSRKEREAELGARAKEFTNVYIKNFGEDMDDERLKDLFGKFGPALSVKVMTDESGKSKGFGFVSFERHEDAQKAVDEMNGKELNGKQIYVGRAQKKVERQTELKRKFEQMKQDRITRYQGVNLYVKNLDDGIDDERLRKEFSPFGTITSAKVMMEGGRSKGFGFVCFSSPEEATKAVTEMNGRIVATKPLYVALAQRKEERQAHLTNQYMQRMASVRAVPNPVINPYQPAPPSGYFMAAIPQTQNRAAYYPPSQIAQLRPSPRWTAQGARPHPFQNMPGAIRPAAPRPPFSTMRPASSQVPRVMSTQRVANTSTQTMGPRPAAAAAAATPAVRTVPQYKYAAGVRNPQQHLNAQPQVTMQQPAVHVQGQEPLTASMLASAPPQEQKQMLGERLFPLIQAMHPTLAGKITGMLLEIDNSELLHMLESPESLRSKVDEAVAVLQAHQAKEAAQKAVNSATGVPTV
Sequence of Disintegrin and metalloproteinase domain-containing protein 17 (P78536 whole entry, the tested form may be a part): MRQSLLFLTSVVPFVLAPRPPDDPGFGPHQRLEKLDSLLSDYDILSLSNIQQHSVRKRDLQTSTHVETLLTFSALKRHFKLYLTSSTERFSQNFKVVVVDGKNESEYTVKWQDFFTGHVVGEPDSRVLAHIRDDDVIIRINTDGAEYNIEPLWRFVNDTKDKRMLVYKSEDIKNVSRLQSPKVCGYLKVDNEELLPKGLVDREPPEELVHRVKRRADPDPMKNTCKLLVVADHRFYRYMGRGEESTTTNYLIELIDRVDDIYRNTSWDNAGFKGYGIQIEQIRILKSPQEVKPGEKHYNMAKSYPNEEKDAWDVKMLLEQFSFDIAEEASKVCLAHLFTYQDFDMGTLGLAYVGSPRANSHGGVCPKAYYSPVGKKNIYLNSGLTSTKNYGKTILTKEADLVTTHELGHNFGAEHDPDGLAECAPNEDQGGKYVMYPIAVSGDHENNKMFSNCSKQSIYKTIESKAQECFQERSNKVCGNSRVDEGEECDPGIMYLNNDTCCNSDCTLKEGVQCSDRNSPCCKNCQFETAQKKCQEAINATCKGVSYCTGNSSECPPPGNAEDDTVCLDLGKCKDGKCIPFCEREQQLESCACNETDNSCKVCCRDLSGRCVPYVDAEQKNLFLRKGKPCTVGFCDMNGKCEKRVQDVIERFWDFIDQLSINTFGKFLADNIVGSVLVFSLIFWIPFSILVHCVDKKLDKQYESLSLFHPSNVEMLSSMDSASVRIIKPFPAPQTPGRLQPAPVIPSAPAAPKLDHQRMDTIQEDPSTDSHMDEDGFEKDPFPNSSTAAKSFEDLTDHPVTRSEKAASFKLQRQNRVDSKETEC
Sequence of Paired box protein Pax-8 (Q06710 whole entry): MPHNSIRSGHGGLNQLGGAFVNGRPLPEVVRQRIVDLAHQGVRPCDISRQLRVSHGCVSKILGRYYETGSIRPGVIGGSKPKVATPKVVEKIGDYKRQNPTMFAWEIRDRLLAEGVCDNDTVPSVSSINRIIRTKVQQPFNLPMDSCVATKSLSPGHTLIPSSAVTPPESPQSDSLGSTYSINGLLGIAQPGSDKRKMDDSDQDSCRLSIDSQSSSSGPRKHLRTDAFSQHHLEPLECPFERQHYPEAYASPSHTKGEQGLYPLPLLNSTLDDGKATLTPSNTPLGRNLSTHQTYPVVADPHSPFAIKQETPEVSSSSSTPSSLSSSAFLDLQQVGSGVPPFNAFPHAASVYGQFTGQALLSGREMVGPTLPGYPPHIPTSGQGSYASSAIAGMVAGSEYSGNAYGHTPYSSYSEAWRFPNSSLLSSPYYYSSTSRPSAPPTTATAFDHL
Sequence of Estrogen receptor beta (Q92731 whole entry, the tested form may be a part): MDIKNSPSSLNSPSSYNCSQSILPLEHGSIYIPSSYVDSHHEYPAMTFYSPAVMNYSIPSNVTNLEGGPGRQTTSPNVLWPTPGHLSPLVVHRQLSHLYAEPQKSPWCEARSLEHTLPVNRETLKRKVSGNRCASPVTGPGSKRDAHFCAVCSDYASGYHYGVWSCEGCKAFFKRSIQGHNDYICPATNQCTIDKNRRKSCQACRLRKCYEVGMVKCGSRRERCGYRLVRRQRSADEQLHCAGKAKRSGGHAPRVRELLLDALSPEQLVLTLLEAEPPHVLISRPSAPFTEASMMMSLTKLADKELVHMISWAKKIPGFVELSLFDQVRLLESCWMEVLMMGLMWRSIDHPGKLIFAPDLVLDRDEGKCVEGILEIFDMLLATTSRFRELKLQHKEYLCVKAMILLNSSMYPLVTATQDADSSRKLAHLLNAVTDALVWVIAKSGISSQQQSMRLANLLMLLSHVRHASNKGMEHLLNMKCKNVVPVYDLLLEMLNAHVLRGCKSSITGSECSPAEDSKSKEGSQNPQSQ

Turning to `COc1ccc(S(=O)(=O)N2CC[C@@H]3[C@@H](CO)Nc4ccc(-c5ccc(C#N)cc5)cc4[C@@H]32)cc1`, the values for the AC50 in experiment [1] and in experiment [2] were 3.16 µM (active) and 6.28 µM (active), respectively.

In the case of `O=C(CC1SC(=O)N(c2ccccc2)C1=O)Nc1ccccc1` (stereo unspecified), the results for the IC50 in [3], in experiment [4] and in experiment [5] were 46.7 µM (inactive), > 66 µM (inactive) and > 66 µM (inactive), respectively.

For the compound `Cc1cccc(NC(S)=NNC(=O)c2nn(C)cc2Cl)c1`, the IC50 in experiment [6] is > 122 µM (inactive).

As for `CCCCOc1ccc(CSC(=N)N)cc1Cl`, the IC50 in experiment [6] was > 122 µM (inactive).

For the compound `O=C(c1cc(-c2ccco2)on1)N1CCCc2ccccc21`, the IC50 against Estrogen receptor and on Estrogen receptor beta was > 50 µM (not active) each time.

Turning to `CN(C)c1ccc2c(=O)c3ccccc3oc2n1`, in experiment [7], the EC50 (usually the concentration at which the effect is half-maximal) was > 67.6 µM (inactive).

Take `C[C@H](CO)N1C[C@H](C)[C@@H](CN(C)S(=O)(=O)c2cccs2)OCCCC[C@H](C)Oc2ccc(NS(=O)(=O)c3ccc(Cl)cc3)cc2C1=O`: the AC50 (as a rule, the concentration giving half of the maximal activity seen) is 54.6 µM (active) in experiment [8]; 66.4 µM (active) in [9]; 3.86 µM (active) at Paired box protein Pax-8; > 70 µM (inactive) in experiment [10]; 29.4 µM (active) in [11].

Take `CCOc1ccc(-n2c(SCC(=O)Nc3nccs3)nnc2-c2ccoc2C)cc1`: in [12], the AC50 is > 52 µM (inactive).
